# Measurements as given in patent US11459337B2, “Isothiazolo[5,4-D]pyrimidine compound as IRAK4 inhibitor” (priority 2018, dated 2022).
# Where two headings read alike, the source gives them in different places.
# Columns and labels:
# THP-1 cells = experiment: TNF-α ELISA assay in LPS-stimulated THP-1 cells; format: cell-based, human; settings: Homo sapiens, THP-1, 18 h, TNF-α in supernatant, 150 ng/mL LPS
# Protocol: TNF-α ELISA Assay in THP-1 Cells THP-1 human acute unicellular leukemia cells were purchased from ATCC (Cat #TIB-202) and incubated in a 37° C., 5% CO2 incubator. The medium was RPMI1640 (Gibco, Cat #22400-105), the supplementary was 10% FBS (Gibco, Cat #10091148); 1% PenStrep (Gibco, Cat #15140); 0.05 mM 2-mercaptoethanol (Sigma, Cat #M6250). TNF-α content in the culture supernatant was measured by a TNF-α Elisa kit. TNF-α was produced by stimulation of THP-1 cells with 150 ng/mL LPS (Sigma, Cat #L6529). Normal THP-1 cells in logarithmic phase were inoculated in 96-well plates (Corning #3599) at a certain concentration (1×10^5/100 μL) and then incubated in an incubator. After two hours, 16.7 μL of test compound of different concentrations (8×final concentration) was added and the mixture was incubated. After one hour, 16.7 μL of 1200 ng/mL LPS was added and the mixture was incubated. After 18 hours, the culture was centrifuged and the supernatant was collected. The TNF-α content was measured by a TNF-α Elisa kit. Finally, the OD signals (OD450-OD570) were read on an envision plate reader. The OD450-OD570 signals were converted to percent inhibition. Inhibition %=(ZPE−sample)/(ZPE−HPE)×100. “HPE” represents the OD450-OD570 signal value of the control without LPS-stimulated cells, and “ZPE” represents the OD450-OD570 signal value of the control with LPS-stimulated cells. IC50 values for compounds were calculated by XLFit in the Excel. Y=Bottom+(Top−Bottom)/(1+(IC50/X)^HillSlope). Equation: […]
# [1] = system: LPS-induced TNF-α secretion; experiment: Pharmacodynamic study evaluating LPS-induced TNF-α secretion in SD rats; format: in vivo; settings: for efficacy compared with dexamethasone DEX: DEX 0.5 mg/kg; for inhibitory effect on LPS-induced TNF-α secretion: LPS 1 mg/kg i.p.
# Protocol: Pharmacodynamic Study Evaluating […] (LPS)-Induced TNF-α Secretion in SD Rats SD rats were orally administered with a solvent, dexamethasone (DEX, 0.5 mg/kg) as positive control, and the test compound, and were intraperitoneally injected with LPS (1 mg/kg) 0.5 hours after the administration Animals were euthanized with CO2 2 hours after LPS injection. Cardiac blood was collected into EDTA-K2 vacutainers, and a part of the anticoagulated blood was centrifuged and the plasma was frozen at −80° C. Frozen plasma was thawed at room temperature and the concentration of TNF-α in the plasma was measured using ELISA kit. The experimental data were expressed using mean±SEM, and TNF-α levels were analyzed by One-way ANOVA. Significant differences were considered for p<0.05.
# human IRAK4 = human IRAK4 (Homo sapiens (Human), UniProt Q9NWZ3); experiment: 33P-labeled kinase activity assay (Reaction Biology Corp), in vitro enzymatic activity; format: biochemical; settings: 20 μM ATP, 3 nM kinase, MBP substrate
# Chain of human IRAK4 (Q9NWZ3 whole entry): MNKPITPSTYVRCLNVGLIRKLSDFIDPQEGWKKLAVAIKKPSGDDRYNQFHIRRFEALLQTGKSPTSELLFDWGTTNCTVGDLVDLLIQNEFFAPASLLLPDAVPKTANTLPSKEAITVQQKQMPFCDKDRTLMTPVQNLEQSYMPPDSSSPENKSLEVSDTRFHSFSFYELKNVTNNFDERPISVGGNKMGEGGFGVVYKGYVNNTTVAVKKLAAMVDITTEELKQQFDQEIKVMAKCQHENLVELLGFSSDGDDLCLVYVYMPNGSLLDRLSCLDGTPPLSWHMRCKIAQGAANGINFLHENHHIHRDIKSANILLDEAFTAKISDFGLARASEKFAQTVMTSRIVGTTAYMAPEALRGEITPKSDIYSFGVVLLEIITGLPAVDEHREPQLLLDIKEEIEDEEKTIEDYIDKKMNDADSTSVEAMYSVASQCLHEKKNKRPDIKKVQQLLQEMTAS
# Protocol: The inhibitory activity of the test compounds against human IRAK4 was evaluated by measuring IC50 values in a ^33P-labeled kinase activity assay (Reaction Biology Corp). Buffer conditions: 20 mM Hepes (pH 7.5), 10 mM MgCl2, 1 mM EGTA, 0.02% Brij35, 0.02 mg/mL BSA, 0.1 mM Na3VO4, 2 mM DTT, 1% DMSO. Procedures: The test compound was dissolved in DMSO at room temperature to prepare a 10 mM solution for later use. The substrate was dissolved in fresh buffer, to which the kinase was added and mixed well. The DMSO solution containing the test compound was added to the above mixed reaction system by an acoustic technique (Echo 550). The concentrations of the compounds in reaction system were 10 μM, 3.33 μM, 1.11 μM, 0.370 μM, 0.123 μM, 41.2 nM, 13.7 nM, 4.57 nM, 1.52 nM, and 0.508 nM. After 15 minutes of incubation, the reaction was started by adding ^33P-ATP (activity: 0.01 μCi/μL; the corresponding concentration is listed in Table 1). Supplier's catalog number, lot number and concentration information in the reaction system for IRAK4 and its substrate are listed in Table 1. After 120 minutes of reaction at room temperature, the resulting solution was loaded on P81 ion exchange chromatography paper sheet (Whatman #3698-915). After repeated washing with 0.75% phosphoric acid solution, the radioactivity of the phosphorylated substrate residue on the paper sheet was measured. The kinase activity data are shown as a comparison of the kinase activity of the test compound and the kinase activity of the blank (DMSO only) and a curve was fitted using Prism4 software (GraphPad) to give IC50 values, with the experimental results shown in Table 2. [table]
# [2] = Pharmacokinetic study of oral and intravenous test compounds in SD rats; format: in vivo; settings: rat, plasma, SD male rats; for Vd: read-out: Apparent volume of distribution Vdss; for AUC(0-t): read-out: Area under plasma concentration-time curve AUC0-last; for clearance: read-out: Clearance CL; for half-life: read-out: Half life T1/2 (converted); for bioavailability: read-out: Bioavailability F; for Cmax: read-out: Peak concentration Cmax; for Tmax: read-out: Time to peak Tmax
# Protocol: Pharmacokinetic Study of Oral and Intravenous Test Compounds in SD Rats The test compound was mixed with a solution containing 10% of methyl pyrrolidone, 10% of polyethylene glycol stearate and 80% of water. The mixture was vortexed and sonicated to prepare a 1.5 mg/mL clarified solution, which was then filtered through a microporous membrane for later use. SD male rats aged 7 to 10 weeks were selected and administered intravenously with a dose of the candidate compound at 3 mg/kg. The test compound was mixed with 0.5% aqueous methylcellulose solution. The mixture was vortexed and sonicated to prepare a 2 mg/mL suspension for later use. SD male rats aged 7 to 10 weeks were selected and orally administered with a dose of the candidate compound at 10 mg/kg. Whole blood was collected at certain time points, and plasma was separated. The drug concentration was measured by LC-MS/MS, and pharmacokinetic parameters were calculated using Phoenix WinNonlin software (Pharsight, USA).
# [3] = In vitro metabolic stability in liver microsome, human; format: in vitro ADME; settings: Human liver microsomes, 1 μM compound, 0.5 mg/mL protein
# Protocol: (§1) Metabolic Stability in Liver Microsome The test compounds at 1 μM were co-incubated with liver microsomes having a protein concentration of 0.5 mg/mL under the action of a reductive coenzyme II regeneration system in a 37° C. water bath. • 1) Positive controls included: testosterone (3A4 substrate), propylamine propiophenone (2D6 substrate), and diclofenac (2C9 substrate). The positive controls were incubated in the same condition as the test compounds. • 2) The reaction was stopped using a stop reagent containing the internal standard at time points of 0, 5, 10, 20, 30 and 60 minutes. […] CLint^mic: intrinsic microsomal clearance;
# [4] = In vitro metabolic stability in liver microsome, monkey; format: in vitro ADME; settings: Monkey liver microsomes, 1 μM compound, 0.5 mg/mL protein
# Protocol: as §1
# [5] = In vitro metabolic stability in liver microsome, mouse; format: in vitro ADME; settings: Mouse liver microsomes, 1 μM compound, 0.5 mg/mL protein
# Protocol: as §1
# [6] = In vitro metabolic stability in liver microsome, dog; format: in vitro ADME; settings: Dog liver microsomes, 1 μM compound, 0.5 mg/mL protein
# Protocol: as §1
# [7] = In vitro metabolic stability in liver microsome, rat; format: in vitro ADME; settings: Rat liver microsomes, 1 μM compound, 0.5 mg/mL protein
# Protocol: as §1
Compound,IC50 (THP-1 cells) [µM],IC50 (human IRAK4) [µM],"Vd ([2]; Intravenous, 3 mg/kg) [L/kg]","AUC(0-t) ([2]; Intravenous, 3 mg/kg) [µM·h]","clearance ([2]; Intravenous, 3 mg/kg) [mL/min/kg]","half-life ([2]; Intravenous, 3 mg/kg) [h]","AUC(0-t) ([2]; Oral, 10 mg/kg) [µM·h]","bioavailability ([2]; Oral, 10 mg/kg) [%]","Cmax ([2]; Oral, 10 mg/kg) [nM]","Tmax ([2]; Oral, 10 mg/kg) [h]",Re1 h % (residue of test compound at 1 hour) [3] [%],Re1 h % (residue of test compound at 1 hour) [4] [%],Re1 h % (residue of test compound at 1 hour) [5] [%],Re1 h % (residue of test compound at 1 hour) [6] [%],Re1 h % (residue of test compound at 1 hour) [7] [%],"efficacy compared with dexamethasone DEX ([1]; FIG. 2, oral, 20 mpk)","inhibitory effect on LPS-induced TNF-α secretion ([1]; FIG. 2, oral, 20 mpk)","efficacy compared with dexamethasone DEX ([1]; FIG. 1, oral, 30 mpk)","inhibitory effect on LPS-induced TNF-α secretion ([1]; FIG. 1, oral, 30 mpk)","inhibitory effect compared with reference compounds WXR2, WXR3 and WXR4 ([1]; FIG. 1, oral, same doses (30 mpk))"
COC(=O)N1CCN([C@H]2CC[C@H](Nc3nc(Nc4cnn(C5CCOCC5)c4)nc4snc(C)c34)CC2)CC1 [WX026],0.156,0.002,4.5,1.77,50.6,2.2,1.36,23,308,1.5,,,,,,equivalent,significant inhibitory effect,,,
COC(=O)N1C2CC1CN([C@H]1CC[C@H](Nc3nc(Nc4cnn(C5CCOCC5)c4)nc4snc(C)c34)CC1)C2 [WX044],,0.0407,,,,,,,,,,,,,,,significant inhibitory effect,,,
Cc1nsc2nc(Nc3cnn(C4COC4)c3)nc(N[C@H]3CC[C@H](N4CCOCC4)CC3)c12 [WX009],0.649,0.0213,5.7,1.46,73.3,1.8,2.69,58,540,2.5,,,,,,,,,,
"c1cc2c(N[C@H]3CC[C@H](N4CCOCC4)CC3)nc(Nc3cnn(C4CCOCC4)c3)nc2s1 [WXR1, reference compound]",,,,,,,,,,,23.7,0.6,0.0,5.5,32.3,,,,,

# Further lines, with some results ahead:
IC50 (THP-1 cells) [µM],IC50 (human IRAK4) [µM],"Vd ([2]; Intravenous, 3 mg/kg) [L/kg]","AUC(0-t) ([2]; Intravenous, 3 mg/kg) [µM·h]","clearance ([2]; Intravenous, 3 mg/kg) [mL/min/kg]","half-life ([2]; Intravenous, 3 mg/kg) [h]","AUC(0-t) ([2]; Oral, 10 mg/kg) [µM·h]","bioavailability ([2]; Oral, 10 mg/kg) [%]","Cmax ([2]; Oral, 10 mg/kg) [nM]","Tmax ([2]; Oral, 10 mg/kg) [h]",Re1 h % (residue of test compound at 1 hour) [3] [%],Re1 h % (residue of test compound at 1 hour) [4] [%],Re1 h % (residue of test compound at 1 hour) [5] [%],Re1 h % (residue of test compound at 1 hour) [6] [%],Re1 h % (residue of test compound at 1 hour) [7] [%],Compound,"efficacy compared with dexamethasone DEX ([1]; FIG. 2, oral, 20 mpk)","inhibitory effect on LPS-induced TNF-α secretion ([1]; FIG. 2, oral, 20 mpk)","efficacy compared with dexamethasone DEX ([1]; FIG. 1, oral, 30 mpk)","inhibitory effect on LPS-induced TNF-α secretion ([1]; FIG. 1, oral, 30 mpk)","inhibitory effect compared with reference compounds WXR2, WXR3 and WXR4 ([1]; FIG. 1, oral, same doses (30 mpk))"
0.177,0.0068,4.6,1.75,57,1.4,2.05,35,397,2.3,50.0,3.2,39.1,60.5,76.6,Cc1nsc2nc(Nc3cnn(C4CCOCC4)c3)nc(N[C@H]3CC[C@H](N4CCOCC4)CC3)c12 [WX001],,significant inhibitory effect,equivalent,significant inhibitory effect,significantly superior
0.417,0.0057,3.3,1.33,79,0.9,1.64,38,389,2,,,,,,Cc1nsc2nc(Nc3cnn(C4CCOC4)c3)nc(N[C@H]3CC[C@H](N4CCOCC4)CC3)c12 (some centres unmarked) [WX007],,,,,
0.329,0.0029,4.8,1.33,71.4,1,2.01,48,523,0.8,,,,,,CC(C)c1nsc2nc(Nc3cnn(C4CCOCC4)c3)nc(N[C@H]3CC[C@H](N4CCOCC4)CC3)c12 [WX003],,,,,
